In patent US20250051263A1, “NOVEL IONIZABLE LIPIDS AND LIPID NANOPARTICLES AND METHODS OF USING THE SAME” (Sail Biomedicines, Inc., priority 2021, published 2025):

What was measured:
[1] = mRNA encapsulation efficiency, Quant-iT RiboGreen RNA Assay; format: physicochemical; details: Example 5 LNP lipid:DOPE:Plant Cholesterol:DMPE-PEG2k 35:16:46.5:2.5, FLUC/EPO 1:1 mRNA, N:P 6:1
Source text: (§1) All other compositions (i.e., compositions of MC3 (a commercially available ionizable lipid having a chemical name of (6Z,9Z,28Z,31Z)-heptatriacont-6,9,28,31-tetraene-19-yl 4-(dimethylamino)butanoate, and compositions of novel ionizable lipids 7669, 7671, 7668, 767, 7650) are composed of ionizable lipid:structural lipid:sterol:PEG-lipid (SDA lipid #:DSPC:cholesterol:14:0 PEG2000 PE) at a molar ratio of […], respectively. Lipids are solubilized in ethanol. Compositions are then handled as above, except the formulations are maintained at ionizable lipid to mRNA N:P ratio of 6:1. The lipid mix and mRNA solution are mixed at a 1:3 ratio by volume, respectively, on a NanoAssemblr Ignite (Precision Nanosystems) at a total flow rate of 9 mL/min. Resulting compositions are then loaded into Slide-A-Lyzer G2 dialysis cassettes (10 k MWCO) and dialyzed in 200 times sample volume of 1×PBS for 4 hrs at room temp with gentle stirring. The PBS is refreshed, and the compositions are further dialyzed for at least 14 hrs at 4° C. with gentle stirring. The dialyzed compositions are then collected and concentrated by centrifugation at 2000×g using Amicon Ultra centrifugation filters (100 k MWCO). Concentrated particles are characterized for size, polydispersity, and particle concentration using Zetasizer Ultra (Malvern Panalytical) and for mRNA encapsulation efficiency using Quant-iT RiboGreen RNA Assay Kit (ThermoFisher Scientific).
(§2) The lipid mix and mRNA solution were mixed at a 1:3 ratio by volume, respectively, on the NanoAssemblr Ignite (Precision Nanosystems) at a total flow rate of 9 mL/min. Resulting formulations were then loaded into Slide-A-Lyzer G2 dialysis cassettes (10 k MWCO) and dialyzed in 200 times sample volume of 1×PBS for 2 hrs at room temperature. The PBS was refreshed, and the formulations were further dialyzed for at least 14 hrs at 4° C. with gentle stirring. The dialyzed formulations were then collected and concentrated by centrifugation at 3000×g using Amicon Ultra centrifugation filters (100 k MWCO). The concentrated formulations were characterized for size, polydispersity, and particle concentration using Zetasizer Ultra (Malvern Panalytical) and for mRNA encapsulation efficiency using Quant-iT RiboGreen RNA Assay Kit (ThermoFisher Scientific).
(§3) For each LNP composition, the lipid mix and mRNA solution were mixed at a 1:3 ratio by volume, respectively, on a NanoAssemblr Ignite (Precision Nanosystems) at a total flow rate of 9 mL/min. The resulting compositions were then loaded into Slide-A-Lyzer G2 dialysis cassettes (10 k MWCO) and dialyzed in 200 times sample volume of 1×PBS for 2 hours at room temperature with gentle stirring. The PBS was refreshed, and the compositions were further dialyzed for at least 14 hours at 4° C. with gentle stirring. The dialyzed compositions were then collected and concentrated by centrifugation at 3000×g using Amicon Ultra centrifugation filters (100 k MWCO). The concentrated particles were characterized for size, polydispersity, and particle concentration using Zetasizer Ultra (Malvern Panalytical) and for mRNA encapsulation efficiency using Quant-iT RiboGreen RNA Assay Kit (ThermoFisher Scientific).

[2] = LNP size and polydispersity, Zetasizer Ultra; format: physicochemical; details: Example 5 LNP lipid:DOPE:Plant Cholesterol:DMPE-PEG2k 35:16:46.5:2.5, FLUC/EPO 1:1 mRNA, N:P 6:1
Source text: as §1, §2, §3

Row | SMILES | % EE [1] | PDI [2] | Size (nm) [2]
1 | CCCCCCCCCOC(=O)CCCCCCCN(CCCCCCCC(=O)OC(CCCCCCCC)CCCCCCCC)CCNC(=O)CCC(=O)NCCN(CCCCCCCC(=O)OCCCCCCCCC)CCCCCCCC(=O)OC(CCCCCCCC)CCCCCCCC [Compound 2213, nonyl 8-[2-[[4-[2-[(8-nonoxy-8-oxo-octyl)-[8-(1-octylnonoxy)-8-oxo-octyl]amino]ethylamino]-4-oxo-butanoyl]amino]ethyl-[8-(1-octylnonoxy)-8-oxo-octyl]amino]octanoate] | 92.5% | 0.10 | 63.9 nm
2 | CCCCCCCCCCCOC(=O)CCCCCN(CCCCCCCC(=O)OC(CCCCCCCC)CCCCCCCC)CCN1CCN(CCN(CCCCCCCC(=O)OC(CCCCCCCC)CCCCCCCC)CCCCCC(=O)OCCCCCCCCCCC)CC1 [Compound 2248, 1-octylnonyl 8-[2-[4-[2-[[8-(1-octylnonoxy)-8-oxo-octyl]-(6-oxo-6-undecoxy-hexyl)amino]ethyl]piperazin-1-yl]ethyl-(6-oxo-6-undecoxy-hexyl)amino]octanoate] | 95.0% | 0.10 | 83.5 nm
3 | CCCCCCCCC(CCCCCCCC)OC(=O)CCCCCCCN(CCCCCCCC(=O)OC(CCCCCCCC)CCCCCCCC)CCNC(=O)CCC(=O)NCCN(CCCCCCCC(=O)OC(CCCCCCCC)CCCCCCCC)CCCCCCCC(=O)OC(CCCCCCCC)CCCCCCCC [Compound 2275, 1-octylnonyl 8-[2-[[4-[2-[bis[8-(1-octylnonoxy)-8-oxo-octyl]amino]ethylamino]-4-oxo-butanoyl]amino]ethyl-[8-(1-octylnonoxy)-8-oxo-octyl]amino] octanoate] | 94.7% | 0.10 | 67.4 nm
4 | CCCCCCCCCCCNC(=O)CCCCCN(CCCCCCCC(=O)NC(CCCCCCCC)CCCCCCCC)CCNC(=O)CCC(=O)NCCN(CCCCCCCC(=O)NC(CCCCCCCC)CCCCCCCC)CCCCCC(=O)NCCCCCCCCCCC [Compound 2282, N,N′-bis[2-[[8-(1-octylnonylamino)-8-oxo-octyl]-[6-oxo-6-(undecylamino)hexyl]amino]ethyl]butanediamide] | 94.7% | 0.16 | 73.1 nm
5 | CCCCCCCCC(CCCCCCCC)OC(=O)CCCCCCCN(CCCCCCCC(=O)OC(CCCCCCCC)CCCCCCCC)CCNC(=O)CCCC(=O)NCCN(CCCCCCCC(=O)OC(CCCCCCCC)CCCCCCCC)CCCCCCCC(=O)OC(CCCCCCCC)CCCCCCCC [Compound 2320, 1-octylnonyl 8-[2-[[5-[2-[bis[8-(1-octylnonoxy)-8-oxo-octyl]amino]ethylamino]-5-oxo-pentanoyl]amino]ethyl-[8-(1-octylnonoxy)-8-oxo-octyl]amino]octanoate] | 93.4% | 0.15 | 126.1 nm
6 | CCCCCC(CCCCC)CCCOC(=O)CCCCCCCN(CCCCCCCC(=O)OCCCC(CCCCC)CCCCC)CCNC(=O)CCC(=O)NCCN(CCCCCCCC(=O)OCCCC(CCCCC)CCCCC)CCCCCCCC(=O)OCCCC(CCCCC)CCCCC [Compound 2332, bis(4-pentyl-nonyl)13,16-dioxo-9,20-bis(8-oxo-8-((4-pentylnon-yl)oxy)octyl)-9,12,17,20-tetraazaocta-cosanedioate] | 98.0% | 0.12 | 68.1 nm
7 | CCCCCCCCCC(C)COC(=O)CCCCCN(CCCCCCCC(=O)OC(CCCCCCCC)CCCCCCCC)CCNC(=O)CCC(=O)NCCN(CCCCCCCC(=O)OC(CCCCCCCC)CCCCCCCC)CCCCCC(=O)OCC(C)CCCCCCCCC (stereo not drawn) [Compound 2355, 1-octylnonyl 8-[[6-(2-methylundecoxy)-6-oxo-hexyl]-[2-[[4-[2-[[6-(2-methylundecoxy)-6-oxo-hexyl]-[8-(1-octylnonoxy)-8-oxo-octyl]amino]ethylamino]-4-oxo-butanoyl]amino]ethyl]amino]octanoate] | 94.9% | 0.07 | 74.7 nm
8 | CCCCCCCCCCC(CC)OC(=O)CCCCCN(CCCCCCCC(=O)OC(CCCCCCCC)CCCCCCCC)CCNC(=O)/C=C/C(=O)NCCN(CCCCCCCC(=O)OC(CCCCCCCC)CCCCCCCC)CCCCCC(=O)OC(CC)CCCCCCCCCC (stereo not drawn) [Compound 2378, 1-octylnonyl 8-[[6-(1-ethylundecoxy)-6-oxo-hexyl]-[2-[[(E)-4-[2-[[6-(1-ethylundecoxy)-6-oxo-hexyl]-[8-(1-octylnonoxy)-8-oxo-octyl]amino]ethylamino]-4-oxo-but-2-enoyl]amino]ethyl]amino]octanoate] | 93.0% | 0.08 | 107.8 nm
9 | CCCCCCCCCCCOC(=O)CCCCCN(CCCCCCCC(=O)OCCCC(CCCCC)CCCCC)CCNC(=O)/C=C/C(=O)NCCN(CCCCCCCC(=O)OCCCC(CCCCC)CCCCC)CCCCCC(=O)OCCCCCCCCCCC [Compound 2382, 4-pentylnonyl 8-[2-[[(E)-4-oxo-4-[2-[[8-oxo-8-(4-pentylnonoxy)octyl]-(6-oxo-6-undecoxy-hexyl)amino]ethylamino]but-2-enoyl]amino]ethyl-(6-oxo-6-undecoxy-hexyl)amino]octanoate] | 87.3% | 0.13 | 105.2 nm
10 | CCCCCCCCCCCOC(=O)CCCCCN(CCCCCCCC(=O)OC(CCCCCC)CCCCCCCC)CCNC(=O)CCC(=O)NCCN(CCCCCCCC(=O)OC(CCCCCC)CCCCCCCC)CCCCCC(=O)OCCCCCCCCCCC (stereo not drawn) [Compound 2390, 1-hexylnonyl 8-[2-[[4-[2-[[8-(1-hexylnonoxy)-8-oxo-octyl]-(6-oxo-6-undecoxy-hexyl)amino]ethylamino]-4-oxo-butanoyl]amino]ethyl-(6-oxo-6-undecoxy-hexyl)amino]octanoate] | 90.6% | 0.09 | 71.6 nm
